Some results are limits rather than exact numbers.

One assay deals with MCH receptor (Homo sapiens, UniProt Q99705). In words: High throughput functional screening FLIPR/FDSS6000: inhibition of MCH-evoked intracellular Ca2+ changes. The assay is classed as cell-based. The note with it: class by percent of control at 10^-7 M or IC50. The method in brief: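 Cells expressing a non-endogenous, constitutively active MCH receptor were loaded with 4 μM Fluo4-AM (with probenecid) for 1 hr at 37° C. Test compound was preincubated 3 min at 37° C before 50 nM MCH was added. The [Ca2+]i transient was read at Ex 488/Em 530 nm for 290 s.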
On to `CN(C)c1nc(N[C@H]2CC[C@@H](CNC(=O)Nc3ccccc3Br)CC2)nc2ccccc12` [compound 411, N-(2-bromophenyl)-N′-[(cis-4-{[4-(dimethylamino)quinazolin-2-yl]amino}cyclohexyl)methyl]urea], for which the class is recorded as 2 (Class 2: The value of percent of control at 10^−7 M was from 40% to 60% or the value of IC50 was from 50 nM to 200 nM.).

As to `CN(C)c1nc(N[C@H]2CC[C@@H](CNC(=O)Nc3ccc(Cl)cc3[N+](=O)[O-])CC2)nc2ccccc12` [compound 547], the class is on record as 3 (Class 3: The value of percent of control at 10^−7 M was more than 60% or the value of IC50 was more than 200 nM.). For `COc1cc(NC(=O)NC[C@H]2CC[C@@H](Nc3nc(N(C)C)c4ccccc4n3)CC2)cc(OC)c1` [compound 525], the class is 2 (Class 2: The value of percent of control at 10^−7 M was from 40% to 60% or the value of IC50 was from 50 nM to 200 nM.).

Regarding `CN(C)c1nc(N[C@H]2CC[C@@H](NC(=S)NCCc3ccc(Cl)cc3)CC2)nc2ccccc12` [compound 242], the class is reported as 2 (Class 2: The value of percent of control at 10^−7 M was from 40% to 60% or the value of IC50 was from 50 nM to 200 nM.). On the same count and under the same terms, the figure for `Cc1ccc(F)c(NC(=O)NC[C@H]2CC[C@@H](Nc3nc(N(C)C)c4ccccc4n3)CC2)c1` [compound 497] is 3 (Class 3: The value of percent of control at 10^−7 M was more than 60% or the value of IC50 was more than 200 nM.); for `Cc1ccccc1CNC(=O)NC[C@H]1CC[C@@H](Nc2nc(N(C)C)c3ccccc3n2)CC1` [compound 510, N-[(cis-4-{[4-(dimethylamino)quinazolin-2-yl]amino}cyclohexyl)methyl]-N′-(2-methylbenzyl)urea] it is 2 (Class 2: The value of percent of control at 10^−7 M was from 40% to 60% or the value of IC50 was from 50 nM to 200 nM.). Still for that read-out and setting: the figure for `CN(C)c1nc(N[C@H]2CC[C@@H](NC(=S)NC3CCCCCCC3)CC2)nc2ccccc12` [compound 287, N-cyclooctyl-N′-(cis-4-{[4-(dimethylamino)quinazolin-2-yl]amino}cyclohexyl)thiourea] is 2 (Class 2: The value of percent of control at 10^−7 M was from 40% to 60% or the value of IC50 was from 50 nM to 200 nM.); for `CSc1ccc(NC(=S)NC[C@H]2CC[C@@H](Nc3nc(N(C)C)c4ccccc4n3)CC2)cc1` [compound 606] it is 3 (Class 3: The value of percent of control at 10^−7 M was more than 60% or the value of IC50 was more than 200 nM.); for `CCOC(=O)c1ccc(NC(=O)NC[C@H]2CC[C@@H](Nc3nc(N(C)C)c4ccccc4n3)CC2)cc1` [compound 431] it is 3 (Class 3: The value of percent of control at 10^−7 M was more than 60% or the value of IC50 was more than 200 nM.). The same measure, in the same setting: the figure for `CN(C)c1nc(N[C@H]2CC[C@@H](NC(=S)Nc3ccc(N4CCOCC4)nc3)CC2)nc2ccccc12` [compound 403] is 3 (Class 3: The value of percent of control at 10^−7 M was more than 60% or the value of IC50 was more than 200 nM.). As to `CN(C)c1nc(N[C@H]2CC[C@@H](NC(=S)NCCCCc3ccccc3)CC2)nc2ccccc12` [compound 374], the class is reported as 2 (Class 2: The value of percent of control at 10^−7 M was from 40% to 60% or the value of IC50 was from 50 nM to 200 nM.). On the same count and under the same terms, then `CN(C)c1nc(N[C@H]2CC[C@@H](CNC(=O)Nc3cc(C(F)(F)F)cc(C(F)(F)F)c3)CC2)nc2ccccc12` [compound 409], with 3 (Class 3: The value of percent of control at 10^−7 M was more than 60% or the value of IC50 was more than 200 nM.); and `COc1ccc(NC(=S)N[C@H]2CC[C@@H](Nc3nc(N(C)C)c4ccccc4n3)CC2)c(C)c1` [compound 320, N-(cis-4-{[4-(dimethylamino)quinazolin-2-yl]amino}cyclohexyl)-N′-(4-methoxy-2-methylphenyl)thiourea], with 1 (Class 1: The value of percent of control at 10^−7 M was less than 40% or the value of IC50 was less than 50 nM.).

Still in this assay, the particulars now being: class by percent of control at 10^-7 M or by IC50; read-out: class.
Turning to `CN(C)c1nc(N[C@H]2CC[C@@H](NC(=S)Nc3cc(C(F)(F)F)cc(C(F)(F)F)c3)CC2)nc2ccccc12` [compound 155], the IC50 is > 200 nM. As for `COCCOC(=O)NC[C@H]1CC[C@@H](Nc2nc(N(C)C)c3ccccc3n2)CC1` [compound 872], the IC50 is > 200 nM. Turning to `CN(C)c1nc(N[C@H]2CC[C@@H](NC(=O)Nc3ccccc3OC(F)(F)F)CC2)nc2ccccc12` [compound 152], the IC50 was > 200 nM.

With `CCCCCCCOc1ccc(NC(=O)N[C@H]2CC[C@@H](Nc3nc(N(C)C)c4ccccc4n3)CC2)cc1` [compound 825], the IC50 was > 200 nM. Same read-out and setting: the figure for `Cc1cccc(C)c1NC(=S)N[C@H]1CC[C@@H](Nc2nc(N(C)C)c3ccccc3n2)CC1` [compound 169, N-(cis-4-{[4-(dimethylamino)quinazolin-2-yl]amino}cyclohexyl)-N′-(2,6-dimethylphenyl)thiourea] is < 50 nM. As for `CN(C)c1nc(N[C@H]2CC[C@@H](CNC(=S)NCCN3CCOCC3)CC2)nc2ccccc12` [compound 808], the IC50 is > 200 nM.

`CN(C)c1nc(N[C@H]2CC[C@@H](NC(=S)Nc3cccc(Cl)c3)CC2)nc2ccccc12` [compound 163]: the IC50 was > 200 nM.

On to `CN(C)c1nc(N[C@H]2CC[C@@H](NC(=O)Nc3cc(Cl)ccc3Cl)CC2)nc2ccccc12` [compound 26], for which the IC50 was > 200 nM.

With `CN(C)c1nc(N[C@H]2CC[C@@H](NC(=O)OCc3ccccc3Cl)CC2)nc2ccccc12` [compound 863], the IC50 fell in the range of 50 to 200 nM.

Still in this assay, the particulars now being: class by percent of control at 10^−7 M or by IC50; read-out: class.
In the case of `CN(C)c1nc(N[C@H]2CC[C@@H](C(=O)NCc3cc(C(F)(F)F)ccc3Cl)CC2)nc2ccccc12` [Example 1183, cis-N-[2-chloro-5-(trifluoromethyl)benzyl]-4-{[4-(dimethylamino)quinazolin-2-yl]amino}cyclohexanecarboxamide], the IC50 was < 50 nM. In the case of `CN(C)c1nc(N[C@H]2CC[C@@H](NC(=O)c3ccc(Oc4cc(F)cc(F)c4)nc3)CC2)nc2ccccc12` [Example 1063, 6-(3,5-difluorophenoxy)-N-(cis-4-{[4-(dimethylamino)quinazolin-2-yl]amino}cyclohexyl)nicotinamide], the IC50 was > 200 nM. The same measure, in the same setting: the figure for `CN(C)c1nc(N[C@H]2CC[C@@H](NC(=O)c3ccc(Oc4ccccc4Cl)nc3)CC2)nc2ccccc12` [Example 1051, 6-(2-chlorophenoxy)-N-(cis-4-{[4-(dimethylamino)quinazolin-2-yl]amino}cyclohexyl)nicotinamide] is > 200 nM. `COc1cccc(OCC(=O)N[C@H]2CC[C@@H](Nc3nc(N(C)C)c4ccccc4n3)CC2)c1` [Example 1081, N-(cis-4-{[4-(dimethylamino)quinazolin-2-yl]amino}cyclohexyl)-2-(3-methoxyphenoxy)acetamide]: the IC50 is < 50 nM. Still for that read-out and setting: then `CN(C)c1nc(N[C@H]2CC[C@@H](C(=O)NCc3ccc(F)c(Br)c3)CC2)nc2ccccc12` [Example 1161, cis-N-(3-bromo-4-fluorobenzyl)-4-{[4-(dimethylamino)quinazolin-2-yl]amino}cyclohexanecarboxamide], with < 50 nM; and `CN(C)c1nc(N[C@H]2CC[C@@H](NC(=O)COc3ccc(Cl)c(Cl)c3)CC2)nc2ccccc12` [Example 1075, 2-(3,4-dichlorophenoxy)-N-(cis-4-{[4-(dimethylamino)quinazolin-2-yl]amino}cyclohexyl)acetamide], with < 50 nM.

The record behind these values is US20070010671A1, “Novel quinazoline derivatives and methods of treatment related to the use thereof” (priority 2003, published 2007).
